Source: PMC5608341, “The human VGF-derived bioactive peptide TLQP-21 binds heat shock 71 kDa protein 8 (HSPA8)on the surface of SH-SY5Y cells” (PLoS ONE, 2017)
pKd: −log10 of the molar value. Where no end group is shown, it is not given here. The star is where a group is joined. Biotin = O=C1N[C@H]2[C@H](CS[C@H]2CCCCC(=O)*)N1

How the values were obtained:
[1] = system: HSPA8 on the surface of SH-SY5Y cells; test: Crosslinking of biotinylated TLQP-21 to live SH-SY5Y surface membrane proteins, avidin affinity, Western blot; format: binding, human; settings: 50 μM biotin-TLQP-21, 1 mM Sulfo-EMCS, 1 hour, room temperature; versus control without peptide
Protocol: After electrophoresis, as described earlier, proteins were transferred onto PVDF membranes (Millipore, Bedford) using semi-dry method (Trans-blot SD semi-dry transfer cell, Biorad). The membranes were then blocked 5% BSA in TBS-T solution (Tris-buffered saline with 0.1% tween 20, pH = 7.6) for 1 hour at room temperature, and probed with anti-HSC70/HSPA8 (Abcam) antibody at 1:500 dilution. Anti-rabbit antibody (Dako) at a 1:2000 dilution was used as the secondary antibody. Subsequently, the membrane was incubated with Luminata Forte Western HRP substrate [Merck Millipore] for 5 minutes and developed using Hypercassette and Amersham hyperfilm (GE Healthcare).
SH-SY5Y cells were grown as described above until confluence. Culture medium was removed, cells were washed three times with cold PBS and incubated with 2 mL of PBS containing 1 mM Sulfo-EMCS with 50 μM biotin-TLQP-21 for 1 hour at room temperature. Control cells were incubated under the same conditions with the same reaction mixture lacking biotin-TLQP-21. The cross-linking reaction was stopped adding Tris-HCl, pH 7.8 to a final concentration 50 mM. Cells were washed twice with cold PBS and solubilized in lysis buffer (20 mM HEPES pH 7.4, 2 mM EGTA, 1 mM DTT, 1 mM sodium orthovanadate, 1% Triton X-100, 10% glycerol, 2 μM leupeptin, 400 μM PMSF, 50 μM β-glycerophosphate and 100 μg/ml aprotinin). […]

[2] = system: HSPA8; settings: pooled fractions 4 and 5, anti-HSPA8 1:500, three replicates, versus control fractions
Protocol: A monomeric avidin column (Thermo Scientific) was washed with 8 ml PBS followed by addition of 6 ml (2 mM D-biotin in PBS, pH = 7.2) to block any non-reversible biotin binding sites. Regeneration buffer (0.1M glycine, pH 2.8, 12 ml) was added to remove biotin from the reversible binding sites followed by washing with 8 ml of PBS. One ml of 0.1 mM biotin-TLQP-21 was mixed with 900 μl of PBS and 100 μl of 1mM TCEP and the resulting solution was applied to the column, which was incubated for an hour at room temperature. The column was then washed with 12 ml of PBS. A 2ml solution containing 700 μl of SH-SY5Y cell lysate with a protein concentration of 10μg/μl was diluted with 1.3 ml of PBS and applied then to the column. The column was then washed with 12 ml of PBS, and eluted with 10 ml of blocking/elution buffer. Fractions of 500 μl were collected and kept on ice until further use for analysis by SYPRO® Ruby Protein Gel Stain (Lonza), and Western blot. As a control, cell lysate solution was added under the same conditions to a column to which biotin-TLQP-21 was not attached.
After electrophoresis, as described earlier, proteins were transferred onto PVDF membranes (Millipore, Bedford) using semi-dry method (Trans-blot SD semi-dry transfer cell, Biorad). […]

[3] = system: Heat shock cognate 71 kDa protein (HSPA8/HSC70); test: Avidin-agarose affinity chromatography of SH-SY5Y cell homogenate with biotin-TLQP-21, SDS-PAGE/SYPRO Ruby and MASCOT MS/MS identification; HSPA8; format: binding, human; settings: fractions 4-5, control column without biotin-TLQP-21
Protocol: Portions (25 μl) of each elution fraction from avidin-agarose affinity chromatography were boiled in 2x Laemmli buffer and loaded to a 10% SDS-PAGE gel. Electrophoresis was carried out at 200V for 60 minutes. After completion, the gel was washed in dH2O for 10 minutes. […] The gel was then transferred to a clean staining container, and washed for 5 minutes with fixing solution followed by washing for 5 minutes in dH2O.Finally, the gel was imaged in a Molecular Imager Gel Doc system (Bio Rad, Hercules) using the highest sensitivity of the CCD camera (CoolSNAP HQ2, Roper Scientific) at a resolution of 1392 x 1040 pixels with 12 bit gray scale levels per pixel. […] Extracted peptides were analyzed by LC-MS/MS. […] Ionized peptides were detected in a Bruker Amazon ETD ion trap. Automated analysis of mass data was performed by Data Analysis 4.0 and BioTools 3.2 from Bruker Daltonik GmbH. Database search was done with the Mascot v2.3 search tool (Matrix Science) screening SwissProt (release 57.15). Searches were limited to human taxonomy selecting carbamidomethyl cysteine as a fixed modification and oxidized methionine as potential variable modification. […] All spectra and database results were scrutinized manually in details using the above software, especially in the case of identifications based on one peptide hit. […]

[4] = molecular target: T1, HSPA8 (Homo sapiens, UniProt P11142); settings: ref [45]; read-out: affinity of HSPA8 for the phosphorylated peptide P140; cited from earlier work
T1 construct: HSPA8 immobilization was performed by adding 15 μl of 25 μg/ml of protein in 20 mM sodium acetate buffer

[5] = system: globular head of the complement component C1q receptor (gC1qR); settings: ref [29]; cited from earlier work
Source text: (§1) Remarkably, despite the large volume of data on effects of VGF-derived peptides, very little is known about their receptors, downstream signaling routes and mechanisms of action. […] We reasoned that the neuroblastoma cell line SH-SY5Y would be a good model to study receptors and downstream mechanisms of VGF-derived peptides, given the substantial expression and secrete levels of VGF and VGF-derived ...

[6] = system: complement component-3a receptor 1 (C3AR1); settings: ref [27]–[28]; cited from earlier work
Source text: as §1

T1 sequence (P11142 whole entry): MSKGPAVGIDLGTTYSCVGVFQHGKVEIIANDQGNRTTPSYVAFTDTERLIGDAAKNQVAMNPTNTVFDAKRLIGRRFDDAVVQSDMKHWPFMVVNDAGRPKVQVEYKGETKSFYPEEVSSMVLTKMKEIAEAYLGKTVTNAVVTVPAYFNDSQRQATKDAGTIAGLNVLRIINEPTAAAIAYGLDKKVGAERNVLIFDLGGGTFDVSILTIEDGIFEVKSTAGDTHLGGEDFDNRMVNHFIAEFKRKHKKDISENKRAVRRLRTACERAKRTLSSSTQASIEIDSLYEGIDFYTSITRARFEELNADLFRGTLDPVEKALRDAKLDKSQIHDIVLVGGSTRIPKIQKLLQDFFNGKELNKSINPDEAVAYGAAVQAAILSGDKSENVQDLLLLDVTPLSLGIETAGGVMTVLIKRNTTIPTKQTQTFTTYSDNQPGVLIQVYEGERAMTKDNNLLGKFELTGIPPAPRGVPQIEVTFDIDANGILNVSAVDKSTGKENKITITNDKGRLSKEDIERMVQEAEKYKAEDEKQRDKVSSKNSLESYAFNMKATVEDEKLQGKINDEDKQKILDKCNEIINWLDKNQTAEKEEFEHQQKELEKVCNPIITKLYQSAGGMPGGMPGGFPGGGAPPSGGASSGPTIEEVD

## Biotin-TLQPPSALRRRHYHHALPPSRC [biotin-TLQP-21, amino-terminally biotinylated human TLQP-21 containing an extra cysteine residue at the C-terminus]
[1]
  cross-linking to HSPA8 on live cell surface: A positive ~70kDa band corresponding to HSPA8 was detected
[2]
  Western blot detection of HSPA8 in eluate of biotin-TLQP-21 column: confirmed the ~70 kDa protein as HSPA8 but not in the controls
[3]
  ~70 kDa protein bound on biotin-TLQP-21 column (SYPRO Ruby): A ~70 kDa protein was bound
[3]; listed as biotinyl-TLQP-21
  ~70 kDa protein bound on biotin-TLQP-21 column (SYPRO Ruby): a protein band of ∼70 kDa was detected by SYPRO Ruby staining

## P140: phosphorylated peptide P140, corresponds to a portion of the spliceosomal U1-70K snRNP protein, recognized by lupus CD4+ T cells (RIHMVYSKRSGKPRGYAFIEY; phospho-Ser140 (10th residue of the peptide); P140/Lupuzor is conventionally U1-70K (SNRNP70) 131-151)
[4]
  pKd: ~5.15

## TLQPPASSRRRHFHHALPPAR [murine TLQP-21, mouse TLQP-21]
[5]
  gC1qR as receptor: identified as potential receptors
[6]
  C3AR1 as receptor: identified as potential receptors
